Measurements published in ChEMBL document CHEMBL3351515, “α-Hexylcinnamaldehyde inhibits the genotoxicity of environmental pollutants in the bacterial reverse mutation assay” (2014).

How the values were obtained:
Salmonella typhimurium [1] = assay: Antimutagenic activity against sodium azide-induced revertant colonies in Salmonella typhimurium TA100 assessed as number of revertant colonies measured pretreatment at 900 uM (reference value: 1968 +/- 46.9) in absence of mammalian S9 fraction; assay type: functional, Salmonella enterica subsp. enterica serovar Typhimurium
Salmonella typhimurium [2] = assay: Antimutagenic activity against 2-aminoanthracene-induced revertant colonies in Salmonella typhimurium TA100 assessed as number of revertant colonies measured cotreatment at 18 uM (reference value: 457.9 +/- 16.74) in presence of mammalian S9 fraction; assay type: functional, Salmonella enterica subsp. enterica serovar Typhimurium
Escherichia coli [3] = assay: Antimutagenic activity against methyl methansulfonate-induced revertant colonies in Escherichia coli WP2uvrA assessed as number of revertant colonies measured post-treatment at 9 uM (reference value: 726.7 +/- 12.7) in absence of mammalian S9 fraction; assay type: functional
Escherichia coli [4] = assay: Antimutagenic activity against 2-aminoanthracene-induced revertant colonies in Escherichia coli WP2uvrA assessed as number of revertant colonies measured post-treatment at 900 uM (reference value: 308 +/- 4) in presence of mammalian S9 fraction; assay type: functional
Escherichia coli [5] = assay: Antimutagenic activity against methyl methansulfonate-induced revertant colonies in Escherichia coli WP2uvrA assessed as number of revertant colonies measured pretreatment at 9 uM (reference value: 466.7 +/- 40.4) in absence of mammalian S9 fraction; assay type: functional
Salmonella typhimurium [6] = assay: Antimutagenic activity against 1-nitropyrene-induced revertant colonies in Salmonella typhimurium TA98 assessed as inhibition of mutagenicity measured at 90 to 180 uM; assay type: functional, Salmonella enterica subsp. enterica serovar Typhimurium
Salmonella typhimurium [7] = assay: Antimutagenic activity against 4-nitroquinoline N-oxide-induced revertant colonies in Salmonella typhimurium TA98 assessed as inhibition of mutagenicity measured at 900 uM; assay type: functional, Salmonella enterica subsp. enterica serovar Typhimurium; conditions: Salmonella enterica
Salmonella typhimurium [8] = assay: Antimutagenic activity against 1-nitropyrene-induced revertant colonies in Salmonella typhimurium TA98 1,8 DNP assessed as inhibition of mutagenicity measured at 900 uM; assay type: functional, Salmonella enterica subsp. enterica serovar Typhimurium; conditions: Salmonella enterica
Salmonella typhimurium [9] = assay: Antimutagenic activity against 2-aminoanthracene-induced revertant colonies in Salmonella typhimurium TA100 assessed as number of revertant colonies measured pretreatment at 18 uM (reference value: 481.3 +/- 5.3) in presence of mammalian S9 fraction; assay type: functional, Salmonella enterica subsp. enterica serovar Typhimurium
Salmonella typhimurium [10] = assay: Antimutagenic activity against 2-aminoanthracene-induced revertant colonies in Salmonella typhimurium TA100 assessed as number of revertant colonies measured pretreatment at 900 uM (reference value: 481.3 +/- 5.3) in presence of mammalian S9 fraction; assay type: functional, Salmonella enterica subsp. enterica serovar Typhimurium
Salmonella typhimurium [11] = assay: Antimutagenic activity against 1,8-dinitropyrene-induced revertant colonies in Salmonella typhimurium TA98 assessed as inhibition of mutagenicity measured at 900 uM; assay type: functional, Salmonella enterica subsp. enterica serovar Typhimurium; conditions: Salmonella enterica
Escherichia coli [12] = assay: Antimutagenic activity against 2-aminoanthracene-induced revertant colonies in Escherichia coli WP2uvrA assessed as number of revertant colonies measured post-treatment at 90 uM (reference value: 308 +/- 4) in presence of mammalian S9 fraction; assay type: functional
Salmonella typhimurium [13] = assay: Antimutagenic activity against sodium azide-induced revertant colonies in Salmonella typhimurium TA100 assessed as number of revertant colonies measured pretreatment at 90 uM (reference value: 1968 +/- 46.9) in absence of mammalian S9 fraction; assay type: functional, Salmonella enterica subsp. enterica serovar Typhimurium
Salmonella typhimurium [14] = assay: Antimutagenic activity against sodium azide-induced revertant colonies in Salmonella typhimurium TA100 assessed as number of revertant colonies measured post-treatment at 90 uM (reference value: 1909 +/- 29.7) in absence of mammalian S9 fraction; assay type: functional, Salmonella enterica subsp. enterica serovar Typhimurium
Salmonella typhimurium [15] = assay: Antimutagenic activity against 1-nitropyrene-induced revertant colonies in Salmonella typhimurium TA98NR assessed as inhibition of mutagenicity measured at 900 uM; assay type: functional, Salmonella enterica subsp. enterica serovar Typhimurium; conditions: Salmonella enterica
Escherichia coli [16] = assay: Antimutagenic activity against methyl methansulfonate-induced revertant colonies in Escherichia coli WP2uvrA assessed as number of revertant colonies measured post-treatment at 18 uM (reference value: 726.7 +/- 12.7) in absence of mammalian S9 fraction; assay type: functional
Escherichia coli [17] = assay: Antimutagenic activity against 2-aminoanthracene-induced revertant colonies in Escherichia coli WP2uvrA assessed as number of revertant colonies measured pretreatment at 180 uM (reference value: 178.7 +/- 11.8) in presence of mammalian S9 fraction; assay type: functional
Salmonella typhimurium [18] = assay: Antimutagenic activity against 1-nitropyrene-induced revertant colonies in Salmonella typhimurium TA98 1,8 DNP assessed as inhibition of mutagenicity measured at 9 to 18 uM; assay type: functional, Salmonella enterica subsp. enterica serovar Typhimurium
Escherichia coli [19] = assay: Antimutagenic activity against methyl methansulfonate-induced revertant colonies in Escherichia coli WP2uvrA assessed as number of revertant colonies measured cotreatment at 900 uM (reference value: 485.3 +/- 17.5) in absence of mammalian S9 fraction; assay type: functional
Salmonella typhimurium [20] = assay: Antimutagenic activity against 2-aminoanthracene-induced revertant colonies in Salmonella typhimurium TA100 assessed as number of revertant colonies measured post-treatment at 18 uM (reference value: 642.7 +/- 2.7) in presence of mammalian S9 fraction; assay type: functional, Salmonella enterica subsp. enterica serovar Typhimurium
Salmonella typhimurium [21] = assay: Antimutagenic activity against sodium azide-induced revertant colonies in Salmonella typhimurium TA100 assessed as number of revertant colonies measured cotreatment at 180 uM (reference value: 1588 +/- 55.6) in absence of mammalian S9 fraction; assay type: functional, Salmonella enterica subsp. enterica serovar Typhimurium
Escherichia coli [22] = assay: Antimutagenic activity against 2-aminoanthracene-induced revertant colonies in Escherichia coli WP2uvrA assessed as number of revertant colonies measured cotreatment at 9 uM (reference value: 366 +/- 10.3) in presence of mammalian S9 fraction; assay type: functional
Salmonella typhimurium [23] = assay: Antimutagenic activity against 2-aminoanthracene-induced revertant colonies in Salmonella typhimurium TA100 assessed as number of revertant colonies measured cotreatment at 9 uM (reference value: 457.9 +/- 16.74) in presence of mammalian S9 fraction; assay type: functional, Salmonella enterica subsp. enterica serovar Typhimurium
Escherichia coli [24] = assay: Antimutagenic activity against methyl methansulfonate-induced revertant colonies in Escherichia coli WP2uvrA assessed as number of revertant colonies measured post-treatment at 180 uM (reference value: 726.7 +/- 12.7) in absence of mammalian S9 fraction; assay type: functional
Escherichia coli [25] = assay: Antimutagenic activity against 2-aminoanthracene-induced revertant colonies in Escherichia coli WP2uvrA assessed as number of revertant colonies measured pretreatment at 900 uM (reference value: 178.7 +/- 11.8) in presence of mammalian S9 fraction; assay type: functional
Escherichia coli [26] = assay: Antimutagenic activity against methyl methansulfonate-induced revertant colonies in Escherichia coli WP2uvrA assessed as number of revertant colonies measured post-treatment at 900 uM (reference value: 726.7 +/- 12.7) in absence of mammalian S9 fraction; assay type: functional
Salmonella typhimurium [27] = assay: Antimutagenic activity against 2-aminoanthracene-induced revertant colonies in Salmonella typhimurium TA100 assessed as number of revertant colonies measured cotreatment at 90 uM (reference value: 457.9 +/- 16.74) in presence of mammalian S9 fraction; assay type: functional, Salmonella enterica subsp. enterica serovar Typhimurium
Salmonella typhimurium [28] = assay: Antimutagenic activity against 2-nitrofluorene-induced revertant colonies in Salmonella typhimurium TA98 assessed as inhibition of mutagenicity measured at 9 to 18 uM; assay type: functional, Salmonella enterica subsp. enterica serovar Typhimurium
Salmonella typhimurium [29] = assay: Antimutagenic activity against 2-aminoanthracene-induced revertant colonies in Salmonella typhimurium TA100 assessed as number of revertant colonies measured cotreatment at 180 uM (reference value: 457.9 +/- 16.74) in presence of mammalian S9 fraction; assay type: functional, Salmonella enterica subsp. enterica serovar Typhimurium
Salmonella typhimurium [30] = assay: Antimutagenic activity against 1-nitropyrene-induced revertant colonies in Salmonella typhimurium TA98NR assessed as inhibition of mutagenicity measured at 9 to 18 uM; assay type: functional, Salmonella enterica subsp. enterica serovar Typhimurium
Salmonella typhimurium [31] = assay: Antimutagenic activity against 1,8-dinitropyrene-induced revertant colonies in Salmonella typhimurium TA98 assessed as inhibition of mutagenicity measured at 90 to 180 uM; assay type: functional, Salmonella enterica subsp. enterica serovar Typhimurium

Compound: CCCCCC/C(C=O)=C\c1ccccc1
- Activity (Salmonella typhimurium [1]): 1652
- Activity (Salmonella typhimurium [2]): 446
- Activity (Escherichia coli [3]): 528
- Activity (Escherichia coli [4]): 304.3
- Activity (Escherichia coli [5]): 458.7
- inhibition (INH) (Salmonella typhimurium [6]): 25%
- inhibition at 900 µM (Salmonella typhimurium [7]): > 40%
- inhibition at 900 µM (Salmonella typhimurium [8]): > 40%
- Activity (Salmonella typhimurium [9]): 453.3
- Activity (Salmonella typhimurium [10]): 365.3
- inhibition at 900 µM (Salmonella typhimurium [11]): > 40%
- Activity (Escherichia coli [12]): 308.7
- Activity (Salmonella typhimurium [13]): 1801
- Activity (Salmonella typhimurium [14]): 1803
- inhibition at 900 µM (Salmonella typhimurium [15]): > 40%
- Activity (Escherichia coli [16]): 524
- Activity (Escherichia coli [17]): 147
- inhibition (INH) (Salmonella typhimurium [18]): <25%
- Activity (Escherichia coli [19]): 402.7
- Activity (Salmonella typhimurium [20]): 530.7
- Activity (Salmonella typhimurium [21]): 1457
- Activity (Escherichia coli [22]): 336.8
- Activity (Salmonella typhimurium [23]): 449.3
- Activity (Escherichia coli [24]): 488
- Activity (Escherichia coli [25]): 141.3
- Activity (Escherichia coli [26]): 474
- Activity (Salmonella typhimurium [27]): 408.5
- inhibition (INH) (Salmonella typhimurium [28]): <25%
- Activity (Salmonella typhimurium [29]): 404
- inhibition (INH) (Salmonella typhimurium [30]): <25%
- inhibition (INH) (Salmonella typhimurium [31]): 25%
